Where a name gives a salt, the structure may show the parent alone.
Legend:
[1] = parameters: method as in PMID 7705455; details: rats, s.c.; cited from earlier work
PC-3 cells [2] = assay: cAMP level in PC-3 prostate cancer cells; format: cell-based; details: Homo sapiens, 1 µM forskolin
Protocol: (§1) The examination of the functional activity read out as cAMP level inhibition and ERK1/2 and Akt1 phosphorylation was performed according to the instructions of the One-plate Cisbio Bioassays cAMP dynamic 2, phospho-ERK (Thr202/Tyr204) and Akt1 phospho- S473 Cellular Assay Kits respectively, using a HEK293 human fibroblast cell line that overexpresses 5-HT1A receptors. The measurements were performed in 384-well microtiter plates using 200,000, 1,875,000 or 2,000,000 cells/mL. The cAMP levels in PC-3 cells were determined using 600,000 cells/mL. Receptor activation with the appropriate ligands was carried out for 30 min, and then the cells were lysed. The results were analyzed with GraphPad Prism v 6.0 (GraphPad Software, San Diego, CA, USA) using its in-built functions. Ligand activity was determined using a 4-parameter equation of the dose-response function. The response curves were obtained by plotting the HTRF® ratio (signal ratio 665/620 nm × 10,000) relative to the log concentration of the [compound] M.

Akt pathway = assay: pAkt level (Akt1 phospho-S473 HTRF) in HEK293 cells that overexpress the 5-HT1AR gene; format: cell-based; details: Homo sapiens
Protocol: as §1

5-HT1A receptor [3] = details: cited from earlier work
5-HT1A receptor [4] = target: T1, 5-HT1A receptor (Homo sapiens, UniProt P08908); assay: ERK1/2 phosphorylation (HTRF) in HEK293 cells that overexpress the 5-HT1AR gene; format: cell-based; details: HEK293-5-HT1A cells
T1 construct: EGFP; expressed in transfected cells
T1 sequence (P08908 1-422): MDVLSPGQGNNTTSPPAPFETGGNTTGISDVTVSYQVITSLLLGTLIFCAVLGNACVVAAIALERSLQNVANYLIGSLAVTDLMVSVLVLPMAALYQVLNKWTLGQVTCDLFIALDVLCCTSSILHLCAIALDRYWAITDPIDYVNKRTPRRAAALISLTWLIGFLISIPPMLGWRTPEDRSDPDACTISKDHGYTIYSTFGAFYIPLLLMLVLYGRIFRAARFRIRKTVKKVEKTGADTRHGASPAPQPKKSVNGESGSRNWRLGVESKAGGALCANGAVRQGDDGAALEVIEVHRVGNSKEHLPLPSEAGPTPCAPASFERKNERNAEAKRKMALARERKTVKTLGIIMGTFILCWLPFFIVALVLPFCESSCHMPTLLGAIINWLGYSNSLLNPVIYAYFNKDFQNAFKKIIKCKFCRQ
Protocol: as §1, with “The measurements were performed in 384-well microtiter plates using 200,000, 1,875,000 or 2,000,000 cells/mL.” left out, “The response curves were obtained by plotting the HTRF® ratio (signal ratio 665/620 nm × 10,000) relative to the log concentration of the [compound]” left out
(§2) All compounds were tested with both agonists and antagonists. To test the response of cAMP to an agonist the cells were activated with forskolin (1 µM) followed by agonist addition. […] Data are an average of minimum three independent experiments in duplicate. The control of specific activity was measured under the same conditions on cells lacking the 5-HT1A receptor. The results were expressed as % of the reference agonist activity. In the antagonist mode 100% of the reference agonist activity (EC80) corresponded to 0% antagonist activity.

5-HT1A receptor [5] = target: T1, 5-HT1A receptor; assay: cAMP level (HTRF) in HEK293 cells that overexpress the 5-HT1AR gene; format: cell-based; details: agonist mode, 1 µM forskolin-stimulated HEK293-5-HT1A cells
Protocol: as §1, with “The measurements were performed in 384-well microtiter plates using 200,000, 1,875,000 or 2,000,000 cells/mL.” left out, “The response curves were obtained by plotting the HTRF® ratio (signal ratio 665/620 nm × 10,000) relative to the log concentration of the [compound]” left out
as §2

Balb/c 3T3 cells = assay: MTT cell survival assay, Balb/c 3T3 cells (normal reference); format: cell-based, murine; details: Mus musculus, BALB/c3T3, 72 h
Protocol: (§3) The effects of the test compounds on the survival of PC-3, SH-SY5Y, Balb/c 3T3 and HEK293 cells was measured with the aid of the 3-(4,5-dimethylthiazol-2-yl)-2,5-diphenyltetrazolium bromide (MTT) assay. The cells were cultured in 96-well plates (100 μL/well) for 72 h. The optimized initial densities were the following: for PC-3—60,000 cells/mL, SH-SY5Y and Balb/c 3T3—50,000 cells/mL.
(§4) After 20 h preincubation and evaluation of the uniformity of cell growth, the medium was aspirated, and the respective solutions of the substances were added to the culture medium. Control cells were only treated the solvent used for the compounds and medium alone.
(§5) MTT (3-(4,5-dimethylthiazol-2-yl)-2,5-diphenyltetrazolium bromide) is reduced by intracellular dehydrogenase, which is present only in live cells (mitochondria), to purple, water-insoluble formazan. After it is dissolved, formazan absorbance of the resulting solution is directly proportional to the number of living cells in culture.
After appropriate incubation, the culture medium was removed. Next, 50 μL of MTT solution (0.5 mg/mL) diluted in PBS to 0.5 mg/mL was added to each well. The plates were incubated for 3 h at 37 °C. Then, the precipitated formazan was dissolved by the addition of 200 μL isopropanol. After a 24-hour incubation at 4 °C in the dark, the absorbance of the dissolved formazan was measured at 570 nm (the maximum absorption of formazan) and at 690 nm (reference wavelength) using a Power Wave XS microplate spectrophotometer (Bio-Tek, Winooski, VT, USA). The plates were sealed to reduce evaporation before incubation. The test was performed in three to five independent experiments with four times the measured concentration tested. The cell survival percentage was determined as % of controls, which were cells treated with the test compound solvent at the highest concentration.

PC-3 cells [6] = assay: MTT cell survival assay, PC-3 cells; format: cell-based, human; details: PC-3 cells
Protocol: as §3, §4, §5
(§6) After appropriate incubation, the culture medium was removed. Next, 50 μL of MTT solution (0.5 mg/mL) diluted in PBS to 0.5 mg/mL was added to each well. […] Then, the precipitated formazan was dissolved by the addition of 200 μL isopropanol. […] The plates were sealed to reduce evaporation before incubation. The test was performed in three to five independent experiments with four times the measured concentration tested. The cell survival percentage was determined as % of controls, which were cells treated with the test compound solvent at the highest concentration.

SH-SY5Y cells = assay: MTT cell survival assay, SH-SY5Y cells; format: cell-based, human; details: SH-SY5Y cells
Protocol: as §3, §4, §5, §6

dopamine D2 receptor = details: cited from earlier work
[7] = WAY100635 (5 µM), spiperone (5 µM)

EC50 (PC-3 cells [2]) [nM]	IC50 (PC-3 cells [2]; read-out: cAMP biochemical pathway IC50) [nM]	IC50 (Akt pathway) [nM]	EC50 (5-HT1A receptor [4]; agonist mode, read-out: ERK1/2 EC50) [nM]	EC50 (5-HT1A receptor [4]; elevating phosphorylated ERK1/2 levels, read-out: MAPK/ERK1/2 pathway agonist EC50) [nM]	EC50 (5-HT1A receptor [5]) [nM]	Structure (SMILES)	minimal effective dose (MED), reduction of immobility [1] [mg/kg]	Kd (5-HT1A receptor [3]) [nM]	IC50 (Balb/c 3T3 cells) [nM]	IC50 (PC-3 cells [6]; Homo sapiens, MTT, 72 h) [nM]	cytotoxic activity in the presence of WAY100635 and spiperone (PC-3 cells [6]; [7])	IC50 (SH-SY5Y cells; Homo sapiens, MTT, 72 h) [nM]	cytotoxic activity in the presence of WAY100635 and spiperone (SH-SY5Y cells; [7])	dopamine D2 receptor properties (dopamine D2 receptor)
–	–	–	–	–	–	CCCN(CCC)[C@@H]1CCc2cccc(O)c2C1 [Compound 8-OH-DPAT, (2R)-(+)-8-Hydroxy-2-(di-n-propylamino)tetralin hydrobromide]	0.63	–	–	–	–	–	–	–
320	320	15400	0.062	0.093	0.0254	COc1ccc2cccc(N3CCN(CCNC(=O)c4ccc(F)cc4)CC3)c2c1.Cl [Compound S14506, 4-Fluoro-N-[2-[4-(7-methoxy-1-naphthalenyl)-1-piperazinyl]ethyl]benzamide hydrochloride, reference compound]	–	0.79 ± 0.2	20600 ± 2580	9980 ± 1260	reversed	4270 ± 410	not against neuroblastoma SH-SY5Y cells	dopamine D2 receptor antagonist

From paper PMC6214143, “Oncotoxic Properties of Serotonin Transporter Inhibitors and 5-HT1A Receptor Ligands” (International Journal of Molecular Sciences, 2018)
